One data set deals with HCC1937. The experiment in a line: Antitumor activity against BRCA 1-deficient human HCC1937 cells incubated for 72 hrs by MTT assay. Format: functional, cell-based. The conditions noted are these: HCC1937, 72 h.
The subject of the next data set is MDA-MB-436. Nature of the data set: Antitumor activity against BRCA 1-deficient human MDA-MB-436 cells incubated for 72 hrs by MTT assay. The format is functional, cell-based. The conditions noted are these: MDA-MB-436, 72 h.
Data set [1] is described as follows: Cytotoxicity against human MCF-10A cells incubated for 72 hrs by MTT assay. Format: toxicity, cell-based.
For data set [2], the system named is MDA-MB-231. Nature of the data set: Antitumor activity against human MDA-MB-231 cells harboring wild-type BRCA incubated for 72 hrs by MTT assay. The conditions noted are these: MDA-MB-231, 72 h. Format: functional, cell-based. (In general: Tetrazolium dyes change colour on reduction, which living cells bring about.)
For another data set, the system named is MDA-MB-468. Nature of the data set: Antitumor activity against human MDA-MB-468 cells harboring wild-type BRCA incubated for 72 hrs by MTT assay. Format: functional, cell-based. The conditions noted are these: MDA-MB-468, 72 h.
Data set [3] has as its system MDA-MB-231. The experiment in a line: Anti-migration activity in human MDA-MB-231 cells assessed as wound closure area at 1 uM incubated for 24 hrs by wound healing assay (reference value: 75.6 %). The format is functional.
Data set [4] deals with MDA-MB-231. Nature of the data set: Induction of apoptosis in human MDA-MB-231 cells as increase in red fluorescence at 5 uM incubated for 24 hrs by Calcein AM/PI staining based confocal microscopy. Format: functional, cell-based.
Data set [5] has as its system MDA-MB-231. The experiment in a line: Induction of apoptosis in human MDA-MB-231 cells assessed as increase in Bax level at 5 uM incubated for 24 hrs by Western blot analysis. The format is functional, cell-based. A general note: In western blotting, separated proteins are transferred to a membrane and probed.
The subject of data set [6] is MDA-MB-231. The experiment in a line: Effect on CRAF expression in human MDA-MB-231 cells at 5 uM incubated for 24 hrs by Western blot analysis. Format: functional, cell-based.
The test system of data set [7] is MDA-MB-231. The experiment in a line: […] activity in human MDA-MB-231 cells at 1 uM incubated for 24 hrs by wound healing assay. Format: functional, cell-based.
In data set [8] the test system is MDA-MB-231. The experiment in a line: Induction of apoptosis in human MDA-MB-231 cells assessed as decrease in Bcl-2 level at 5 uM incubated for 24 hrs by Western blot analysis. The format is functional, cell-based.
Data set [9] concerns MDA-MB-231. The experiment in a line: Induction of DNA damage in human MDA-MB-231 cells assessed as increase in olive tail moments at 5 uM incubated for 24 hrs by Comet assay. The format is functional, cell-based.
A short description of data set [10]: Induction of depolarization of mitochondrial membrane potential in human MDA-MB-231 cells at 5 uM incubated for 24 hrs by JC-1 staining based flow cytometry relative to control. Format: functional. For orientation: Flow cytometry measures light scatter and fluorescence of single cells or particles in a stream.
Data set [11] has as its system MDA-MB-231. The experiment in a line: Induction of apoptosis in human MDA-MB-231 cells at 5 uM incubated for 24 hrs by Annexin V-FITC/PI staining based flow cytometry relative to control. Format: functional.
Data set [12] deals with MDA-MB-231. Nature of the data set: Induction of ROS generation in human MDA-MB-231 cells at 5 uM incubated for 24 hrs by DCFH-DA staining based flow cytometric analysis. The format is functional, cell-based.
Data set [13] relates to MDA-MB-231. The experiment in a line: Effect on MEK phosphorylation in human MDA-MB-231 cells at 5 uM incubated for 24 hrs by Western blot analysis. The format is functional, cell-based.
The target of data set [14] is Poly [ADP-ribose] polymerase 1 (Homo sapiens, UniProt P09874). Nature of the data set: Inhibition of PARP1 (unknown origin) using histone as substrate incubated for 60 mins by ELISA.
The subject of data set [15] is MDA-MB-231. The experiment in a line: Induction of DNA damage in human MDA-MB-231 cells assessed as increase in gamma-H2AX level at 5 uM incubated for 24 hrs by immunofluorescence based analysis. Format: functional, cell-based.
In data set [16] the test system is MDA-MB-231. Nature of the data set: Effect on ERK1/2 phosphorylation in human MDA-MB-231 cells at 5 uM incubated for 24 hrs by Western blot analysis. The format is functional, cell-based.
The subject of data set [17] is MDA-MB-231. Nature of the data set: Effect on RAF expression in human MDA-MB-231 cells at 5 uM incubated for 24 hrs by Western blot analysis. Format: functional, cell-based.
Data set [18] can be described thus: Toxicity in BALB/c nude mouse xenografted with human MDA-MB-231 cells assessed as drug tolerance at 20 mg/kg, ip administered on every 2 days for 28 days. Format: organism-based. The conditions noted are these: in vivo, 672 h, time 28 day.
Data set [19] has as its system MDA-MB-231. Nature of the data set: Antitumor activity against human MDA-MB-231 cells xenografted in BALB/c nude mouse assessed as increase in apoptotic cells at 20 mg/kg, ip administered on every 2 days for 28 days by H and E staining based analysis. Format: functional, organism-based. The conditions noted are these: time 28.0 day.
Data set [20] is described as follows: Toxicity in BALB/c nude mouse xenografted with human MDA-MB-231 cells assessed as body weight change at 20 mg/kg, ip administered on every 2 days for 28 days. The format is organism-based. The conditions noted are these: in vivo, 672 h, time 28 day.
Data set [21] concerns MDA-MB-231. Nature of the data set: Antitumor activity against human MDA-MB-231 cells xenografted in BALB/c nude mouse assessed as decrease in Ki-67 expression at 20 mg/kg, ip administered on every 2 days for 28 days by H and E staining based analysis. Format: functional, organism-based. The conditions noted are these: time 28.0 day.
The test system of data set [22] is MDA-MB-231. Nature of the data set: Antitumor activity against human MDA-MB-231 cells xenografted in BALB/c nude mouse assessed as increase in necrotic cells at 20 mg/kg, ip administered on every 2 days for 28 days by H and E staining based analysis. The format is functional, organism-based. The conditions noted are these: time 28.0 day.

Molecules are shown by their SMILES. Activity calls are given as the source filed them. The rule behind the calls is not given here.

Drawing on ChEMBL document CHEMBL6127102 (Bioorg Med Chem, 2024), this text covers IC50 and Activity for twelve compounds.

Poly [ADP-ribose] polymerase 1, sequence (P09874 whole entry): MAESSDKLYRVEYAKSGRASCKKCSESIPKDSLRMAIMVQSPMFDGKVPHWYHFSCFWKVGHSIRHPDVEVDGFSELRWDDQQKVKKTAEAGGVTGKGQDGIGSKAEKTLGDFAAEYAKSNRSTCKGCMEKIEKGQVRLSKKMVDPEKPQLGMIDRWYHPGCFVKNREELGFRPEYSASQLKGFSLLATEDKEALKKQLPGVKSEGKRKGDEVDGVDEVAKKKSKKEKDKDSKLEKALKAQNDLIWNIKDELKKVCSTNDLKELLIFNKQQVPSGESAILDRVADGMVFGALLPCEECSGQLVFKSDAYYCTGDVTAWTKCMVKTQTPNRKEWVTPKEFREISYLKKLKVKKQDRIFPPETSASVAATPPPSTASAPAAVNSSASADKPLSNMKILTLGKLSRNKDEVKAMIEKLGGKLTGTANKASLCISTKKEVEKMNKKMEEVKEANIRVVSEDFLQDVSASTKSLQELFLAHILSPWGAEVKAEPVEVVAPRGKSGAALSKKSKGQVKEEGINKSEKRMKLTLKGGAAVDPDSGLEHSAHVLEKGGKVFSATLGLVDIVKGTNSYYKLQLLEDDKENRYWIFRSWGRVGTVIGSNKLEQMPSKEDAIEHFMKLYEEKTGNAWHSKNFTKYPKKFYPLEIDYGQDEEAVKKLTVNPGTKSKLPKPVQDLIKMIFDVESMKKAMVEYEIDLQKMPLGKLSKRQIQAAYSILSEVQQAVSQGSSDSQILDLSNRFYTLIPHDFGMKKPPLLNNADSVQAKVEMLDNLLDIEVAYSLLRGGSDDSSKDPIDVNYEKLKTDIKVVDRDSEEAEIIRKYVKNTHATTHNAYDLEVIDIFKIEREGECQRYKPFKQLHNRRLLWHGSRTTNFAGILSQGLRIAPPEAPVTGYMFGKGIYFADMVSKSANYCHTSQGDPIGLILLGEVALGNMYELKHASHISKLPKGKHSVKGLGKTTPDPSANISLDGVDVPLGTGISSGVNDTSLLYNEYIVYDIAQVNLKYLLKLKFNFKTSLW

By IC50 is commonly meant the concentration at which inhibition is half-maximal. Take `COc1cc(OC)c(/C=C/S(=O)(=O)Cc2ccc(OC)c(NC(=O)CCCC(=O)O)c2)c(OC)c1`: the IC50 with HCC1937 turned out to be 3.92 µM; in the data set on MDA-MB-436, 4.82 µM; in the data set on MDA-MB-231 [2], 3.57 µM; in the data set on MDA-MB-468 it was 5.76 µM. Further, in [1], the IC50 at 72 h is > 40 µM.

For the compound `O=C(c1cc(Cc2n[nH]c(=O)c3ccccc23)ccc1F)N1CCNCC1`, the Activity with MDA-MB-231 [3] came to 66.1%; in data set [10] it was 23.88%; with MDA-MB-231 [11] it was 21.14%. The 50% inhibitory concentration (IC50) was 3.21 µM in the data set with HCC1937; 2.61 µM in the data set on MDA-MB-436; 21 µM in the data set with MDA-MB-231 [2]; 0.0395 µM in [14]; 12.3 µM with MDA-MB-468. In addition, the outcome with MDA-MB-231 [4], in the data set with MDA-MB-231 [6], in the data set with MDA-MB-231 [7], with MDA-MB-231 [9], in the data set with MDA-MB-231 [12] and in the data set with MDA-MB-231 [13] was inactive. Moreover, the result with MDA-MB-231 [15], with MDA-MB-231 [16] and in the data set on MDA-MB-231 [17] was inactive. In addition, the result in the data set with MDA-MB-231 [5] and with MDA-MB-231 [8] was Active. For the same compound, the IC50 at 72 h in [1] was > 40 µM.

With `COc1cc(OC)c(/C=C/S(=O)(=O)Cc2ccc(OC)c(NCC(=O)O)c2)c(OC)c1` [RIGOSERTIB], the IC50 came out at 0.33 µM in the data set with HCC1937, 0.25 µM in the data set on MDA-MB-436, 0.23 µM with MDA-MB-231 [2] and 0.45 µM in the data set on MDA-MB-468. In [1], this compound showed an IC50 at 72 h of 18.4 µM.

With `COc1cc(OC)c(/C=C/S(=O)(=O)Cc2ccc(OC)c(NCC(=O)N3CCN(C(=O)c4cc(Cc5n[nH]c(=O)c6ccccc56)ccc4F)CC3)c2)c(OC)c1`, the IC50 in the data set on HCC1937 was found to be 1.99 µM; with MDA-MB-436, 1.44 µM; in the data set with MDA-MB-231 [2], 1.28 µM; in the data set on MDA-MB-468 it was 1.37 µM. Further, the IC50 at 72 h in [1] was > 40 µM.

For the compound `COc1cc(OC)c(/C=C/S(=O)(=O)Cc2ccc(OC)c(NCCCCCC(=O)O)c2)c(OC)c1`, the IC50 in the data set with HCC1937 turned out to be 4.76 µM; in the data set on MDA-MB-436, 3.27 µM; in the data set on MDA-MB-231 [2], 2.29 µM; in the data set on MDA-MB-468, 5.37 µM. Further, in [1], the IC50 at 72 h was > 40 µM.

`COc1cc(OC)c(/C=C/S(=O)(=O)Cc2ccc(OC)c(NC(=O)CCCC(=O)N3CCN(C(=O)c4cc(Cc5n[nH]c(=O)c6ccccc56)ccc4F)CC3)c2)c(OC)c1`: the IC50 in the data set with HCC1937 was 2.01 µM; in the data set with MDA-MB-436, 1.93 µM; with MDA-MB-231 [2] it was 2.76 µM; in the data set with MDA-MB-468 it was 3.64 µM. In addition, the IC50 at 72 h in data set [1] is > 40 µM.

For `COc1cc(OC)c(/C=C/S(=O)(=O)Cc2ccc(OC)c(NCCCCCC(=O)N3CCN(C(=O)c4cc(Cc5n[nH]c(=O)c6ccccc56)ccc4F)CC3)c2)c(OC)c1`, the half-maximal inhibitory concentration (IC50) in the data set on HCC1937 is 3.12 µM; in the data set with MDA-MB-436, 2.18 µM; in the data set with MDA-MB-231 [2], 2.68 µM; with MDA-MB-468 it was 4.57 µM. Also, in data set [1], the IC50 at 72 h was > 40 µM.

As for `COc1cc(OC)c(/C=C/S(=O)(=O)Cc2ccc(OC)c(NC(=O)CCC(=O)O)c2)c(OC)c1`, the IC50 in the data set with HCC1937 is 2.17 µM; with MDA-MB-436, 2.09 µM; in the data set on MDA-MB-231 [2], 2.08 µM; with MDA-MB-468, 3.19 µM. In addition, the IC50 at 72 h in data set [1] is > 40 µM.

In the case of `O=C(c1cc(Cc2n[nH]c(=O)c3ccccc23)ccc1F)N1CCN(C(=O)C2CC2)CC1` [OLAPARIB], the Activity result in [18] and in data set [20] was “Non-Toxic” throughout. The IC50 was 5.37 µM with HCC1937, 4.25 µM in the data set on MDA-MB-436, 25.5 µM in the data set with MDA-MB-231 [2] and 14.8 µM in the data set on MDA-MB-468. The result in the data set with MDA-MB-231 [19], in the data set with MDA-MB-231 [21] and with MDA-MB-231 [22] was Active. Also, in data set [1], the IC50 at 72 h was > 40 µM.

Turning to `COc1cc(OC)c(/C=C/S(=O)(=O)Cc2ccc(OC)c(NC(=O)CCCCC(=O)N3CCN(C(=O)c4cc(Cc5n[nH]c(=O)c6ccccc56)ccc4F)CC3)c2)c(OC)c1`, the IC50 amounted to 3.69 µM in the data set on HCC1937, 3.76 µM with MDA-MB-436, 4.57 µM in the data set with MDA-MB-231 [2] and 4.85 µM in the data set with MDA-MB-468. In data set [1], the IC50 at 72 h was > 40 µM.

As for `COc1cc(OC)c(/C=C/S(=O)(=O)Cc2ccc(OC)c(NC(=O)CCCCC(=O)O)c2)c(OC)c1`, the IC50 was determined as 5.29 µM with HCC1937, 7.14 µM with MDA-MB-436, 6.94 µM in the data set on MDA-MB-231 [2] and 6.99 µM in the data set with MDA-MB-468. Also, in [1], the IC50 at 72 h is > 40 µM.

Take `COc1cc(OC)c(/C=C/S(=O)(=O)Cc2ccc(OC)c(NC(=O)CCC(=O)N3CCN(C(=O)c4cc(Cc5n[nH]c(=O)c6ccccc56)ccc4F)CC3)c2)c(OC)c1`: the IC50 with HCC1937 was 1.27 µM; with MDA-MB-436 it was 1.55 µM; in the data set on MDA-MB-231 [2] it was 1.19 µM; in the data set with MDA-MB-468, 2.94 µM. In addition, the IC50 at 72 h in [1] is > 40 µM.
